Key:
[1] = system: yellow nutsedge; assay: Postemergent control of plant species; assay type: in vivo, Cyperus esculentus; conditions: for pest or weed control at 500 ppm: Cyperus, post-emergence, 336 h, read-out: percent postemergent control
Summary of the method: (§1)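 Each compound is dissolved in acetone, mixed with an equal volume of 0.1% surfactant water, and sprayed on plants grown to 2-4 leaves in nutrient soil. Treated and untreated beds sit under identical greenhouse temperature and light for roughly two weeks before growth reduction is rated.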

[2] = system: rice; assay: Postemergent control of plant species; assay type: in vivo, Oryza sativa; conditions: for plant injury at 500 ppm: Oryza sativa, post-emergence, 336 h, read-out: percent postemergent control
Summary of the method: as §1

[3] = system: cocklebur; assay: Postemergent control of plant species; assay type: in vivo, Xanthium spp.; conditions: for pest or weed control at 500 ppm: Xanthium strumarium, post-emergence, 336 h, read-out: percent postemergent control
Summary of the method: as §1

[4] = system: sprangletop; assay: Control of aquatic plant species (paddy water); assay type: in vivo, Leptochloa filiformis; conditions: nine days
Procedure: (§2) In testing for such utility, the plant species to be tested were transplanted into 16 oz. containers into about 2 inches of soil when they were in the 1-2 inch stage and then flooded to a depth of about 1 inch. An acetone concentrate of the chemical to be tested was then injected into the paddy water, the volume injected being varied as desired to provide the desired concentration. Percent control was evaluated nine days after application.

[5] = system: annual morning glory; assay: Postemergent control of plant species; assay type: in vivo, Ipomoea spp.; conditions: for pest or weed control at 500 ppm: Ipomoea, post-emergence, 336 h, read-out: percent postemergent control
Summary of the method: as §1

[6] = system: crabgrass; assay: Postemergent control of plant species; assay type: in vivo, Digitaria spp.; conditions: for pest or weed control at 500 ppm: Digitaria sanguinalis, post-emergence, 336 h, read-out: percent postemergent control
Summary of the method: as §1

[7] = system: rape; assay: Postemergent control of plant species; assay type: in vivo, Brassica napus; conditions: for plant injury at 500 ppm: Brassica napus, post-emergence, 336 h, read-out: percent postemergent control
Summary of the method: as §1

[8] = system: corn; assay: Postemergent control of plant species; assay type: in vivo, Zea mays; conditions: for plant injury at 500 ppm: Zea mays, post-emergence, 336 h, read-out: percent postemergent control
Summary of the method: as §1

[9] = system: wild oats; assay: Postemergent control of plant species; assay type: in vivo, Avena fatua; conditions: for pest or weed control at 500 ppm: Avena fatua, post-emergence, 336 h, read-out: percent postemergent control
Summary of the method: as §1

[10] = system: nitrification of ammonium nitrogen; assay: Suppression of nitrification of ammonium nitrogen in soil; conditions: 27° C.
Summary of the method: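 Soil (20 g) moistened to its 1/3 bar tension value, mixed with test chemical and incubated sealed for two weeks at 27° C. Nitrate extracted with ammonium sulfate solution and measured by nitrate-specific ion electrode; value given as % NH4-N remaining.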

[11] = system: rice; assay: Control of aquatic plant species (paddy water); assay type: in vivo, Oryza sativa; conditions: nine days
Procedure: as §2

[12] = system: johnson grass; assay: Postemergent control of plant species; assay type: in vivo, Sorghum halepense; conditions: for pest or weed control at 500 ppm: Sorghum halepense, post-emergence, 336 h, read-out: percent postemergent control
Summary of the method: as §1

[13] = system: sorghum; assay: Postemergent control of plant species; assay type: in vivo, Sorghum vulgare; conditions: for plant injury at 500 ppm: Sorghum, post-emergence, 336 h, read-out: percent postemergent control
Summary of the method: as §1

[14] = system: barnyardgrass; assay: Control of aquatic plant species (paddy water); assay type: in vivo, Echinochloa crusgalli; conditions: nine days
Procedure: as §2

[15] = system: pigweed; assay: Postemergent control of plant species; assay type: in vivo, Amaranthus spp.; conditions: for pest or weed control at 500 ppm: Amaranthus retroflexus, post-emergence, 336 h, read-out: percent postemergent control
Summary of the method: as §1

[16] = system: barnyardgrass; assay: Postemergent control of plant species; assay type: in vivo, Echinochloa crusgalli; conditions: for pest or weed control at 500 ppm: Echinochloa crus-galli, post-emergence, 336 h, read-out: percent postemergent control
Summary of the method: as §1

[17] = system: cotton; assay: Postemergent control of plant species; assay type: in vivo, Gossypium spp.; conditions: for plant injury at 500 ppm: Gossypium hirsutum, post-emergence, 336 h, read-out: percent postemergent control
Summary of the method: as §1

[18] = system: soybean; assay: Postemergent control of plant species; assay type: in vivo, Glycine max.; conditions: for plant injury at 500 ppm: Glycine max, post-emergence, 336 h, read-out: percent postemergent control
Summary of the method: as §1

[19] = system: yellow foxtail; assay: Postemergent control of plant species; assay type: in vivo, Setaria lutescens; conditions: for pest or weed control at 500 ppm: Setaria, post-emergence, 336 h, read-out: percent postemergent control
Summary of the method: as §1

[20] = system: sugar beet; assay: Postemergent control of plant species; assay type: in vivo, Beta saccharifera; conditions: for plant injury at 500 ppm: Beta vulgaris, post-emergence, 336 h, read-out: percent postemergent control
Summary of the method: as §1

[21] = system: yellow nutsedge; assay: Control of aquatic plant species (paddy water); assay type: in vivo, Cyperus esculentus; conditions: nine days
Procedure: as §2

[22] = system: wheat; assay: Postemergent control of plant species; assay type: in vivo, Triticum aestivum; conditions: for plant injury at 500 ppm: Triticum aestivum, post-emergence, 336 h, read-out: percent postemergent control
Summary of the method: as §1

[23] = system: velvetleaf; assay: Postemergent control of plant species; assay type: in vivo, Abutilon theophrasti; conditions: for pest or weed control at 500 ppm: Abutilon theophrasti, post-emergence, 336 h, read-out: percent postemergent control
Summary of the method: as §1

[24] = system: jimsonweed; assay: Postemergent control of plant species; assay type: in vivo, Datura stramonium; conditions: for pest or weed control at 500 ppm: Datura stramonium, post-emergence, 336 h, read-out: percent postemergent control
Summary of the method: as §1

Cc1cc(C)n2nc(S(=O)(=O)Nc3c(C)cccc3C)nc2n1 [Compound 32, 5,7-dimethyl-N-(2,6-dimethylphenyl)-1,2,4-triazolo[1,5-a]pyrimidine-2-sulfonamide] gave a pest or weed control at 500 ppm [1] of 0%, a plant injury at 500 ppm [2] of 10% and a pest or weed control at 500 ppm [3] of 15%. For the same compound, the pest or weed control at 500 g/ha ([4]; Leptochloa filiformis, 216 h, 0.5 Kg/Ha, read-out: Percent control) was 95%, the pest or weed control at 500 ppm [5] was 0% and the pest or weed control at 500 ppm [6] was 10%. It also gave a plant injury at 500 ppm [7] of 0%, a plant injury at 500 ppm [8] of 0% and a pest or weed control at 500 ppm [9] of 0%. For the same compound, the “% NH4-N Remaining After 2 Weeks Incubation” value ([10]; 0.01 ppm) was 0%, the “% NH4-N Remaining After 2 Weeks Incubation” value ([10]; 0.1 ppm) was 33% and the “% NH4-N Remaining After 2 Weeks Incubation” value ([10]; 1 ppm) was 82%. For the same compound, the “% NH4-N Remaining After 2 Weeks Incubation” value ([10]; 10 ppm) was 100%, the pest or weed control at 500 g/ha ([11]; Oryza sativa, 216 h, 0.5 Kg/Ha, read-out: Percent control) was 93% and the pest or weed control at 500 ppm [12] was 95%. It also gave a plant injury at 500 ppm [13] of 0%, a pest or weed control at 500 g/ha ([14]; Echinochloa crus-galli, 216 h, 0.5 Kg/Ha, read-out: Percent control) of 97% and a pest or weed control at 500 ppm [15] of 0%. The pest or weed control at 500 ppm [16] was 0%, the plant injury at 500 ppm [17] was 20% and the plant injury at 500 ppm [18] was 15%. For the same compound, the pest or weed control at 500 ppm [19] was 10%, the plant injury at 500 ppm [20] was 30% and the pest or weed control at 500 g/ha ([21]; Cyperus, 216 h, 0.5 Kg/Ha, read-out: Percent control) was 95%. For the same compound, the plant injury at 500 ppm [22] was 30%, the pest or weed control at 500 ppm [23] was 50% and the pest or weed control at 500 ppm [24] was 60%.
Cc1nc2nc(S(=O)(=O)Nc3c(Cl)cccc3Cl)nn2c2c1CCC2 [Compound 108, 6,7-cyclopentano-5-methyl-N-(2,6-dichlorophenyl)-1,2,4-triazolo[1,5-a]pyrimidine-2-sulfonamide] was tested, and the percent postemergent control ([1]; 500 ppm) was 35%, the percent postemergent control ([2]; 500 ppm) was 0% and the percent postemergent control ([3]; 500 ppm) was 80%. It also gave a Percent control ([4]; 1.0 Kg/Ha) of 97%, a percent postemergent control ([5]; 500 ppm) of 10% and a percent postemergent control ([6]; 500 ppm) of 0%. For the same compound, the percent postemergent control ([7]; 500 ppm) was 40%, the percent postemergent control ([8]; 500 ppm) was 80% and the percent postemergent control ([9]; 500 ppm) was 0%. For the same compound, the “% NH4-N Remaining After 2 Weeks Incubation” value ([10]; 0.01 ppm) was 43%, the “% NH4-N Remaining After 2 Weeks Incubation” value ([10]; 0.1 ppm) was 69% and the “% NH4-N Remaining After 2 Weeks Incubation” value ([10]; 1 ppm) was 84%. The “% NH4-N Remaining After 2 Weeks Incubation” value ([10]; 10 ppm) was 90%, the Percent control ([11]; 1.0 Kg/Ha) was 97% and the percent postemergent control ([12]; 500 ppm) was 100%. For the same compound, the percent postemergent control ([13]; 500 ppm) was 80%, the Percent control ([14]; 1.0 Kg/Ha) was 97% and the percent postemergent control ([15]; 500 ppm) was 0%. The percent postemergent control ([16]; 500 ppm) was 100%, the percent postemergent control ([17]; 500 ppm) was 70% and the percent postemergent control ([18]; 500 ppm) was 75%. For the same compound, the percent postemergent control ([19]; 500 ppm) was 0%, the percent postemergent control ([20]; 500 ppm) was 70% and the Percent control ([21]; 1.0 Kg/Ha) was 90%. The percent postemergent control ([22]; 500 ppm) was 60%, the percent postemergent control ([23]; 500 ppm) was 90% and the percent postemergent control ([24]; 500 ppm) was 30%.
Compound Cc1cc(C)n2nc(S(=O)(=O)Nc3cccc(Cl)c3)nc2n1 [Compound 17] has a pest or weed control at 500 ppm [1] of 0%, a plant injury at 500 ppm [2] of 0% and a pest or weed control at 500 ppm [3] of 10%. It also gave a pest or weed control at 4000 g/ha ([4]; Leptochloa filiformis, 216 h, 4.0 Kg/Ha, read-out: Percent control) of 0%, a pest or weed control at 500 ppm [5] of 0% and a pest or weed control at 500 ppm [6] of 0%. It also gave a plant injury at 500 ppm [7] of 70%, a plant injury at 500 ppm [8] of 20% and a pest or weed control at 500 ppm [9] of 0%. The “% NH4-N Remaining After 2 Weeks Incubation” value ([10]; 0.01 ppm) was 0%, the “% NH4-N Remaining After 2 Weeks Incubation” value ([10]; 0.1 ppm) was 1% and the “% NH4-N Remaining After 2 Weeks Incubation” value ([10]; 1 ppm) was 38%. For the same compound, the “% NH4-N Remaining After 2 Weeks Incubation” value ([10]; 10 ppm) was 80%, the pest or weed control at 4000 g/ha ([11]; Oryza sativa, 216 h, 4.0 Kg/Ha, read-out: Percent control) was 97% and the pest or weed control at 500 ppm [12] was 60%. It also gave a plant injury at 500 ppm [13] of 40%, a pest or weed control at 4000 g/ha ([14]; Echinochloa crus-galli, 216 h, 4.0 Kg/Ha, read-out: Percent control) of 40% and a pest or weed control at 500 ppm [15] of 50%. For the same compound, the pest or weed control at 500 ppm [16] was 0%, the plant injury at 500 ppm [17] was 15% and the plant injury at 500 ppm [18] was 15%. It also gave a pest or weed control at 500 ppm [19] of 20%, a plant injury at 500 ppm [20] of 10% and a pest or weed control at 4000 g/ha ([21]; Cyperus, 216 h, 4.0 Kg/Ha, read-out: Percent control) of 90%. For the same compound, the plant injury at 500 ppm [22] was 0%, the pest or weed control at 500 ppm [23] was 70% and the pest or weed control at 500 ppm [24] was 0%.
In the case of Cc1cc(C)n2nc(S(=O)(=O)Nc3ccccc3)nc2n1 [Compound 1], the pest or weed control at 500 ppm [1] is reported as 0%, the plant injury at 500 ppm [2] is reported as 0% and the pest or weed control at 500 ppm [3] is reported as 0%. It also gave a pest or weed control at 2000 g/ha ([4]; Leptochloa filiformis, 216 h, 2.0 Kg/Ha, read-out: Percent control) of 90%, a pest or weed control at 500 ppm [5] of 0% and a pest or weed control at 500 ppm [6] of 0%. The plant injury at 500 ppm [7] was 60%, the plant injury at 500 ppm [8] was 0% and the pest or weed control at 500 ppm [9] was 0%. The “% NH4-N Remaining After 2 Weeks Incubation” value ([10]; 0.01 ppm) was 0%, the “% NH4-N Remaining After 2 Weeks Incubation” value ([10]; 0.1 ppm) was 0% and the “% NH4-N Remaining After 2 Weeks Incubation” value ([10]; 1 ppm) was 35%. For the same compound, the “% NH4-N Remaining After 2 Weeks Incubation” value ([10]; 10 ppm) was 75%, the pest or weed control at 2000 g/ha ([11]; Oryza sativa, 216 h, 2.0 Kg/Ha, read-out: Percent control) was 97% and the pest or weed control at 500 ppm [12] was 60%. For the same compound, the plant injury at 500 ppm [13] was 40%, the pest or weed control at 2000 g/ha ([14]; Echinochloa crus-galli, 216 h, 2.0 Kg/Ha, read-out: Percent control) was 95% and the pest or weed control at 500 ppm [15] was 60%. It also gave a pest or weed control at 500 ppm [16] of 15%, a plant injury at 500 ppm [17] of 0% and a plant injury at 500 ppm [18] of 30%. For the same compound, the pest or weed control at 500 ppm [19] was 40%, the plant injury at 500 ppm [20] was 85% and the pest or weed control at 2000 g/ha ([21]; Cyperus, 216 h, 2.0 Kg/Ha, read-out: Percent control) was 70%. For the same compound, the plant injury at 500 ppm [22] was 0%, the pest or weed control at 500 ppm [23] was 70% and the pest or weed control at 500 ppm [24] was 0%.

Source: patent publication US4740233A, “Substituted 1,2,4-triazolo[1,5-a]-pyrimidine-2-sulfonamides and compositions and methods of controlling undesired vegetation and suppressing the nitrification of ammonium nitrogen in soil” (The Dow Chemical Company, priority 1986, dated 1988)
